In patent publication EP0435221A2, “New benzanthracene compound and a process for preparing the same” (HOECHST JAPAN LIMITED, priority 1989, dated 1991):
Values after ≈ are worked out from the molar mass of the structure shown.

Test system: mouse leukemia L-1210 cells
Experiment: inhibitory effect on the proliferation of mouse leukemia L-1210 cells
Type: cell-based
Settings: L1210; 50% inhibitory concentration; proliferation of mouse leukemia L-1210 cells (1 x 10⁶ cells/ml)
Method: Compound 683 of the present invention, as well as the structurally related X-14881 D, was tested for inhibitory effect on the proliferation of mouse leukemia L-1210 cells(1 x 10⁶ cells/ml). The 50% inhibitory concentration values thereof are as follows.

An IC50 of 3 mg/L (≈ 8.42 µM) was found for `COc1cccc2c1C(O)C13C=CC4=C(C(=O)CC(C)C4O)C1(O3)C2O` (centres unmarked) [Compound 683] in this work.
In the case of `COc1cccc2c1C(O)C1(O)C=CC3=C(C(=O)CC(C)C3O)C1C2O` (centres unmarked) [X-14881 D], the IC50 is reported as > 100 mg/L.
